Data from PMC7481839, “Switchable foldamer ion channels with antibacterial activity” (Chemical Science, 2020).
Where a SMILES comes first, the peptide text is derived from it.

Assay: Planar bilayer conductance (PBC) studies
Type: biochemical
Conditions: +100 or –100 mV, 50 s sweeps, up to 2 h, final concentration 8.3 µM, 20 mM MOPS, 100 mM NaCl or KCl, pH 7.4
Method: The observation of discrete conductance events can indicate channel formation and provide information on the nature of these channels.
PBC experiments were performed in a custom-built cell, with either 2 or Cu(II)[2]Cl2 (5–10 μL of a 1 mM solution in MeOH) added to the ground well. Characterisation sweeps were continued for 2 h, or until substantial channel-forming activity was observed. Single channel experiments were conducted under an applied potential of +100 or –100 mV in 50 s sweeps. […] Large current levels and reproducible well-defined quantized steps from 0.5 to 5 ms in duration (similar to the “flicker” behaviour described by Chui and Fyles[42]) were measured (Fig. 6). […] This could imply [Cu(II)[2]Cl]^+ cations[44] are involved in the channel-forming species. Channel events have multilevel conductances, both at +100 mV (∼0.08 nS, ∼0.14 nS) and at –100 mV potentials (∼0.08 nS, ∼0.15 nS).
The blue product from the addition of CuCl to 2 was also assessed using PBC experiments. […] In addition, much longer lived “square topped” openings could also be observed (Fig. 6b). These very regular well-defined quantized current steps were open for up to 20 ms at +100 mV, with multiple stepwise increases in conductance with ∼0.18 nS increments.[46] […]

CC(C)(NC(=O)C(C)(C)NC(=O)C(C)(C)NC(=O)C(C)(C)NC(=O)C(C)(C)n1cc(CN(Cc2ccccn2)Cc2ccccn2)nn1)C(=O)NC(C)(C)C(=O)NC(C)(C)C(=O)NC(C)(C)C(=O)OCC[Si](C)(C)C [foldamer 2] (HELM PEPTIDE1{[CC(C)(C(=O)[*:2])n1cc(CN(Cc2ccccn2)Cc2ccccn2)nn1].[Aib].[Aib].[Aib].[Aib].[Aib].[Aib].[Aib].[C[Si](C)(C)CCO[*:1]]}$$$$V2.0)
ion channel behaviour in PBC: did not display any ion channel behaviour
